# In PubChem BioAssay AID1918932 (Molecular Pharmacology Branch, DTP, NCI, 2023):
# Where “and” joins values, the source holds several entries; their conditions need not be identical. Equal entries are not always repeated.
# System: 171881-019-R-J1-PDC complex spheroid viability
# Experiment: Anticancer human tumor 171881-019-R-J1-PDC patient-derived invasive breast carcinoma cell line growth inhibition
# Settings: for viability, T/C: stronger effect = lower value
# Description: Multicellular complex tumor spheroid response to LSD1 Inhibitor Iadademstat in combination with a variety of drugs and investigational agents in selected tumor cell lines
# The current study was undertaken to assess response to LSD1 inhibitors in combination with standard-of-care drugs and investigational agents in solid tumor complex spheroid models as well as in the K-562 leukemia. Complex spheroids include a stromal component modeled by human endothelial cells (HUVEC) and fibroblasts modeled by human mesenchymal stem cells (MSCs). The concentration ranges selected for each drug and investigational agent were based upon clinically achievable concentrations if the clinical Cmax of the agent was known.
# Compounds. The drugs and investigational agents used in this study are listed on Table 1. All of the agents used, including staurosporine (NSC755774) and gemcitabine (NSC613327), were obtained from the Developmental Therapeutics Program, NCI. FDA-approved anticancer drugs are available from the NCI at http://dtp.nci.nih.gov/branches/dscb/oncology_drugset_explanation.html. Drugs and investigational agents were >95% pure by proton nuclear magnetic resonance (NMR) and liquid chromatography/mass spectrometry (LC/MS). Stock solutions were prepared at 400x in DMSO, stored at -70 degrees C, and diluted in fresh medium prior to their use. The final concentration of DMSO in cell culture wells never exceeded 0.25% (v/v). The FDA-approved anticancer drug set is available from the Developmental Therapeutics Program at https://dtp.cancer.gov/organization/dscb/obtaining/available_plates.htm. All drugs and investigational agents were tested over a range starting from a high concentration at or near the clinical Cmax and decreasing in half-log increments. If the clinical Cmax for an agent had not been determined, the highest concentration tested was 10 microM.
# Cell Lines. The patient-derived cancer cell (PDC) lines: 292921-168-R-J2-PDC, K24384-001-R-PDC, and 521955-158-R2-J5-PDC pancreatic carcinomas, 556581-035-R-J1 ovarian carcinoma, 324938-238-R-J1-PDC, 855422-203-R-J1-PDC and 883617-216-R-J1-PDC urothelial bladder carcinomas, 743489-274-T-PDC renal cell carcinoma, 138582-R-J1 Merkel cell tumor, K60290-347-R-J1 and K57222-313-R-J1-PDC glioblastomas, 653999-131-R-J2-PDC, LG0703-F948-PDC, and 349418-098-R-PDC non-small cell lung carcinomas, 885512-296-R-J2-PDC, 171881-019-R-J1-PDC breast carcinomas and 186277-243-T-J2-PDC and 233499-124-R-J2-PDC colon carcinomas were obtained from the NCI Patient-Derived Models Repository (PDMR, https://pdmr.cancer.gov). The established cell lines NCI/ADR-RES (RRID:CVCL_14520 and OVCAR-5 (RRID:CVCL_1628) ovarian carcinomas, 786-O (RRID:CVCL_1051) and A498 (RRID:CVCL_A498) renal cell carcinoma, NCI-H211 (ATCC, cat. CRL-5824; RRID:CVCL_1529), NCI-H196 (ATCC, cat. CRL-5823, RRID:CVCL_1509), SW 1271 (ATCC, cat. CRL-2177, RRID:CVCL_1716) and NCI-H1876 (ATCC, cat. CRL-5902, RRID:CVCL_1503) small cell lung carcinomas, MDA-MB-231 (RRID:CVCL_0062) and MDA-MB-468 (RRID:CVCL_0419)breast carcinomas (10-12). Pooled donor human umbilical vein endothelial cells (HUVEC, Lonza, cat. CC-2519) and human mesenchymal stem cells (hMSC, Lonza, cat. PT-2501) were purchased from Lonza (Walkersville, MD).
# Cell Culture. All cells were maintained in an incubator at 37 degrees C and 5% CO2 with 95% humidity. The PDC lines were cultured according to standard operating procedures established by the NCI PDMR (https://pdmr.cancer.gov). Briefly all PDCs were thawed and cultured in Matrigel-coated flasks prepared with a working solution of 1X Ham's F-12 nutrient mix, without supplementation (Invitrogen, Waltham, MA, cat. 11765054), 100 U/mL penicillin-streptomycin (Invitrogen, cat. 15140122), and 2.5% Matrigel (Corning Inc., Corning, NY, cat. 354248) for the first three passages. […]
# [1] = curve of first compound, second compound 0.1 µM
# [2] = curve of first compound, second compound 0.316 µM
# [3] = curve of first compound, second compound 1 µM
# [4] = curve of first compound, second compound 3.16 µM
# [5] = curve of first compound, second compound 10 µM
# [6] = second compound 0.1 µM, first compound 0.0316 µM
# [7] = second compound 0.1 µM, first compound 0.1 µM
# [8] = second compound 0.1 µM, first compound 0.316 µM
# [9] = second compound 0.1 µM, first compound 1 µM
# [10] = second compound 0.316 µM, first compound 0.0316 µM
# [11] = second compound 0.316 µM, first compound 0.1 µM
# [12] = second compound 0.316 µM, first compound 0.316 µM
# [13] = second compound 0.316 µM, first compound 1 µM
# [14] = second compound 1 µM, first compound 0.0316 µM
# [15] = second compound 1 µM, first compound 0.1 µM
# [16] = second compound 1 µM, first compound 0.316 µM
# [17] = second compound 1 µM, first compound 1 µM
# [18] = second compound 3.16 µM, first compound 0.0316 µM
# [19] = second compound 3.16 µM, first compound 0.1 µM
# [20] = second compound 3.16 µM, first compound 0.316 µM
# [21] = second compound 3.16 µM, first compound 1 µM
# [22] = second compound 10 µM, first compound 0.0316 µM
# [23] = second compound 10 µM, first compound 0.1 µM
# [24] = second compound 10 µM, first compound 0.316 µM
# [25] = second compound 10 µM, first compound 1 µM
# 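Note: spheroids exposed to agents for 7 days after 3 days growth.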
smiles,measurement,setting,value
O=C(c1cc(Cc2n[nH]c(=O)c3ccccc23)ccc1F)N1CCN(C(=O)C2CC2)CC1 + NC1CC1c1ccc(-c2cccc(O)c2)cc1,IC50,[1],3700 nM
same,IC50,[2],4090 nM
same,IC50,[3],4230 nM
same,IC50,[4],4400 nM
same,IC50,[5],3090 nM
same,"viability, T/C",[6],90.8%
same,"viability, T/C",[7],106%
same,"viability, T/C",[8],98.7%
same,"viability, T/C",[9],88.5%
same,"viability, T/C","second compound 0.1 µM, first compound 3.16 µM",54.5%
same,"viability, T/C","second compound 0.1 µM, first compound 10 µM",22.7%
same,"viability, T/C",[10],101%
same,"viability, T/C",[11],104%
same,"viability, T/C",[12],101%
same,"viability, T/C",[13],88%
same,"viability, T/C","second compound 0.316 µM, first compound 3.16 µM",57.8%
same,"viability, T/C","second compound 0.316 µM, first compound 10 µM",23.7%
same,"viability, T/C",[14],106%
same,"viability, T/C",[15],105%
same,"viability, T/C",[16],102%
same,"viability, T/C",[17],89.5%
same,"viability, T/C","second compound 1 µM, first compound 3.16 µM",58.9%
same,"viability, T/C","second compound 1 µM, first compound 10 µM",24%
same,"viability, T/C",[18],102%
same,"viability, T/C",[19],105%
same,"viability, T/C",[20],101%
same,"viability, T/C",[21],87%
same,"viability, T/C","second compound 3.16 µM, first compound 3.16 µM",61%
same,"viability, T/C","second compound 3.16 µM, first compound 10 µM",23.7%
same,"viability, T/C",[22],85.7%
same,"viability, T/C",[23],84.2%
same,"viability, T/C",[24],83.4%
same,"viability, T/C",[25],74%
same,"viability, T/C","second compound 10 µM, first compound 3.16 µM",49.6%
same,"viability, T/C","second compound 10 µM, first compound 10 µM",18.9%
CC1COCCN1c1cc(-c2ccnn2C)c2ccnc(-c3ccn[nH]3)c2n1 (centres undefined),"viability, T/C",compound 0.00316 µM,55.2% and 49.8%
same,"viability, T/C",compound 0.01 µM,41.7% and 43.5%
same,"viability, T/C",compound 0.0316 µM,15.5% and 21.5%
same,"viability, T/C",compound 0.1 µM,7.25% and 9.16%
same,"viability, T/C",compound 0.316 µM,6.43% and 6.74%
same,"viability, T/C",compound 1 µM,5.29% and 6.58%
same,IC50,curve of compound,4.91 nM and < 3.16 nM
CC1COCCN1c1cc(-c2ccnn2C)c2ccnc(-c3ccn[nH]3)c2n1 (centres undefined) + NC1CC1c1ccc(-c2cccc(O)c2)cc1,IC50,[1],6.07 nM
same,IC50,[2],4.76 nM
same,IC50,[3],4.38 nM
same,IC50,[4],6.57 nM
same,IC50,[5],4.98 nM
same,"viability, T/C","second compound 0.1 µM, first compound 0.00316 µM",54.6%
same,"viability, T/C","second compound 0.1 µM, first compound 0.01 µM",46.5%
same,"viability, T/C",[6],23.1%
same,"viability, T/C",[7],9.09%
same,"viability, T/C",[8],6.72%
same,"viability, T/C",[9],6.42%
same,"viability, T/C","second compound 0.316 µM, first compound 0.00316 µM",53.6%
same,"viability, T/C","second compound 0.316 µM, first compound 0.01 µM",43.5%
same,"viability, T/C",[10],23.6%
same,"viability, T/C",[11],9.96%
same,"viability, T/C",[12],6.7%
same,"viability, T/C",[13],5.87%
same,"viability, T/C","second compound 1 µM, first compound 0.00316 µM",51.1%
same,"viability, T/C","second compound 1 µM, first compound 0.01 µM",47%
same,"viability, T/C",[14],25.3%
same,"viability, T/C",[15],9.83%
same,"viability, T/C",[16],6.55%
same,"viability, T/C",[17],5.67%
same,"viability, T/C","second compound 3.16 µM, first compound 0.00316 µM",56%
same,"viability, T/C","second compound 3.16 µM, first compound 0.01 µM",46.4%
same,"viability, T/C",[18],23.8%
same,"viability, T/C",[19],8.53%
same,"viability, T/C",[20],5.95%
same,"viability, T/C",[21],5.45%
same,"viability, T/C","second compound 10 µM, first compound 0.00316 µM",54.1%
same,"viability, T/C","second compound 10 µM, first compound 0.01 µM",44%
same,"viability, T/C",[22],22.4%
same,"viability, T/C",[23],12.8%
same,"viability, T/C",[24],7.13%
same,"viability, T/C",[25],6.24%
CCc1c2c(nc3ccc(O)cc13)-c1cc3c(c(=O)n1C2)COC(=O)[C@]3(O)CC,"viability, T/C",compound 0.000949 µM,59.6% and 33.9%
same,"viability, T/C",compound 0.003 µM,43% and 40.4%
same,"viability, T/C",compound 0.00949 µM,26.6% and 22%
same,"viability, T/C",compound 0.03 µM,19.3% and 18.7%
same,"viability, T/C",compound 0.0949 µM,10.9% and 21%
same,"viability, T/C",compound 0.3 µM,6.24% and 21.4%
same,IC50,curve of compound,1.8 nM and < 0.949 nM
